Tested on: SK-OV-3 cells
Test: Effect of compounds on tryptophan catabolism in SK-OV-3 cell line (inhibition of kynurenine production, LC-MS/MS)
Type: cell-based
Conditions: Homo sapiens, SK-OV-3, 24 h, SK-OV-3 cell line, 24 h incubation, kynurenine in supernatant by LC-MS/MS; read-out: IC50 Ranges (ic50 values for inhibition of Kynurenine production)
Experimental: SK-OV-3 cells are seeded in 96-well plates in McCoy's 5A medium supplemented with 10% FBS and incubated overnight at 37° C., 5% CO2, 95% humidity. The […] growth medium is replaced with DMEM F-12 medium supplemented with 6 mg/mL L-tryptophan. Compounds are added to the wells and incubated for 24 h at 37° C., 5% CO2, 95% humidity. Compounds are tested at 8 consecutive 3-fold dilutions starting from 30 μM in duplicate. At the end of incubation, concentration of kynurenine in cell supernatants is […] determined by LC-MS/MS. In parallel, cell viability is assessed by measurement of ATP using CellTiter Glo assay (Promega), according to manufacturer's protocol. Inhibition of Kyn production is calculated using the following formula: […] IC50 ranges for compounds of the invention are presented in Table 2, whereby the IC50 ranges are as follows: • A: […]

IC50 [µM] | Compound
1 to 5 | O=C(Nc1ccc(Cl)cc1)N(Cc1cnoc1)C1CCCC1 [Compound 63, 3-(4-chlorophenyl)-1-cyclopentyl-1-(isoxazol-4-ylmethyl)urea]
1 to 5 | O=C(Nc1ccccc1)N(Cc1ccoc1)C1CCCC1 [Compound 64, 1-cyclopentyl-1-(3-furylmethyl)-3-phenyl-urea]
1 to 5 | O=C(Nc1ccccc1)N(Cc1cccnc1)C1CCCC1 [Compound 65, 1-cyclopentyl-3-phenyl-1-(3-pyridylmethyl)urea]
0.1 to 0.5 | O=C(Nc1ccc(Cl)cc1)N(Cc1cccnc1)C1CCCC1 [Compound 66, 3-(4-chlorophenyl)-1-cyclopentyl-1-(3-pyridylmethyl)urea]
1 to 5 | O=C(Nc1ccccc1)N(Cc1ccccn1)C1CCCC1 [Compound 67, 1-cyclopentyl-3-phenyl-1-(2-pyridylmethyl)urea]
1 to 5 | O=C(Nc1ccc(F)cc1)N(Cc1ccccn1)C1CCCC1 [Compound 68, 1-cyclopentyl-3-(4-fluorophenyl)-1-(2-pyridylmethyl)urea]
0.1 to 0.5 | O=C(Nc1ccc(Cl)cc1)N(Cc1ccccn1)C1CCCC1 [Compound 69, 3-(4-chlorophenyl)-1-cyclopentyl-1-(2-pyridylmethyl)urea]
> 5 | O=C(Nc1ccc(F)cc1)N(Cc1cnccn1)C1CCCC1 [Compound 70, 1-cyclopentyl-3-(4-fluorophenyl)-1-(pyrazin-2-ylmethyl)urea]
0.5 to 1 | O=C(Nc1ccc(Cl)cc1)N(Cc1cnccn1)C1CCCC1 [Compound 71, 3-(4-chlorophenyl)-1-cyclopentyl-1-(pyrazin-2-ylmethyl)urea]
> 5 | O=C(Nc1ccc(F)cc1)N(Cc1ncccn1)C1CCCC1 [Compound 72, 1-cyclopentyl-3-(4-fluorophenyl)-1-(pyrimidin-2-ylmethyl)urea]
1 to 5 | O=C(Nc1ccc(Cl)cc1)N(Cc1ncccn1)C1CCCC1 [Compound 73, 3-(4-chlorophenyl)-1-cyclopentyl-1-(pyrimidin-2-ylmethyl)urea]
> 5 | O=C(Nc1ccc(F)cc1)N(Cc1ccncc1)C1CCCC1 [Compound 75, 1-cyclopentyl-3-(4-fluorophenyl)-1-(4-pyridylmethyl)urea]
0.5 to 1 | O=C(Nc1ccc(Cl)cc1)N(Cc1ccncc1)C1CCCC1 [Compound 76, 3-(4-chlorophenyl)-1-cyclopentyl-1-(4-pyridylmethyl)urea]
0.1 to 0.5 | CC1(CN(C(=O)Nc2ccccc2)C2CCCC2)CCN(C(=O)OC(C)(C)C)CC1 [Compound 77, tert-butyl 4-[[cyclopentyl(phenylcarbamoyl)amino]methyl]-4-methyl-piperidine-1-carboxylate]
0.1 to 0.5 | CC1(CN(C(=O)Nc2ccc(F)cc2)C2CCCC2)CCN(C(=O)OC(C)(C)C)CC1 [Compound 78, tert-butyl 4-[[cyclopentyl-[(4-fluorophenyl)carbamoyl]amino]methyl]-4-methyl-piperidine-1-carboxylate]
0.1 to 0.5 | CC1(CN(C(=O)Nc2ccc(Cl)cc2)C2CCCC2)CCN(C(=O)OC(C)(C)C)CC1 [Compound 79, tert-butyl 4-[[(4-chlorophenyl)carbamoyl-cyclopentyl-amino]methyl]-4-methyl-piperidine-1-carboxylate]
0.5 to 1 | Cc1ccc(CN(C(=O)Nc2ccncc2)C2CCCC2)o1 [Compound 81, 1-cyclopentyl-1-[(5-methyl-2-furyl)methyl]-3-(4-pyridyl)urea]
1 to 5 | CC1(CN(C(=O)Nc2ccccc2)C2CCCC2)CCNCC1 [Compound 85, 1-cyclopentyl-1-[(4-methyl-4-piperidyl)methyl]-3-phenyl-urea]
1 to 5 | CC1(CN(C(=O)Nc2ccc(F)cc2)C2CCCC2)CCNCC1 [Compound 86, 1-cyclopentyl-3-(4-fluorophenyl)-1-[(4-methyl-4-piperidyl)methyl]urea]
> 5 | CC1(CN(C(=O)Nc2ccc(Cl)cc2)C2CCCC2)CCNCC1 [Compound 87, 3-(4-chlorophenyl)-1-cyclopentyl-1-[(4-methyl-4-piperidyl)methyl]urea]
0.5 to 1 | O=C(Nc1ccncc1)N(Cc1cccc(C(F)(F)F)c1)C1CCCC1 [Compound 88, 1-cyclopentyl-3-(4-pyridyl)-1-[[3-(trifluoromethyl)phenyl]methyl]urea]
1 to 5 | Cc1ccc(CN(C(=O)Nc2cccc(C#N)c2)C2CCCC2)o1 [Compound 93, 3-(3-cyanophenyl)-1-cyclopentyl-1-[(5-methyl-2-furyl)methyl]urea]

Further lines, the compound ahead of its results:

Compound | IC50 [µM]
O=C(Nc1ccccc1)N(Cc1ccccc1Cl)C1CCCC1 [Compound 38, 1-[(2-chlorophenyl)methyl]-1-cyclopentyl-3-phenyl-urea] | 0.5 to 1
CCc1ccc(NC(=O)N(Cc2ccccc2Cl)C2CCCC2)cc1 [Compound 39, 1-[(2-chlorophenyl)methyl]-1-cyclopentyl-3-(4-ethylphenyl)urea] | > 5
O=C(Nc1ccc(F)c(F)c1)N(Cc1ccccc1Cl)C1CCCC1 [Compound 40, 1-[(2-chlorophenyl)methyl]-1-cyclopentyl-3-(3,4-difluorophenyl)urea] | 0.1 to 0.5
Cn1ncc(CN(C(=O)Nc2ccccc2)C2CCCC2)c1Cl [Compound 41, 1-[(5-chloro-1-methyl-pyrazol-4-yl)methyl]-1-cyclopentyl-3-phenyl-urea] | 1 to 5
CCc1ccc(NC(=O)N(Cc2cnn(C)c2Cl)C2CCCC2)cc1 [Compound 42, 1-[(5-chloro-1-methyl-pyrazol-4-yl)methyl]-1-cyclopentyl-3-(4-ethylphenyl)urea] | 0.1 to 0.5
Cn1ncc(CN(C(=O)Nc2ccc(F)c(F)c2)C2CCCC2)c1Cl [Compound 43, 1-[(5-chloro-1-methyl-pyrazol-4-yl)methyl]-1-cyclopentyl-3-(3,4-difluorophenyl) urea] | 1 to 5
Cn1ncc(CN(C(=O)Nc2ccc(F)cc2)C2CCCC2)c1Cl [Compound 44, 1-[(5-chloro-1-methyl-pyrazol-4-yl)methyl]-1-cyclopentyl-3-(4-fluorophenyl) urea] | 0.5 to 1
COc1ccc(CN(C(=O)Nc2ccccc2)C2CCCC2)cc1C [Compound 45, 1-cyclopentyl-1-[(4-methoxy-3-methyl-phenyl)methyl]-3-phenyl-urea] | 0.1 to 0.5
COc1ccc(CN(C(=O)NCCc2ccccc2)C2CCCC2)cc1C [Compound 46, 1-cyclopentyl-1-[(4-methoxy-3-methyl-phenyl)methyl]-3-(2-phenylethyl)urea] | 1 to 5
COc1ccc(CN(C(=O)Nc2ccc(F)c(F)c2)C2CCCC2)cc1C [Compound 47, 1-cyclopentyl-3-(3,4-difluorophenyl)-1-[(4-methoxy-3-methyl-phenyl)methyl]urea] | 0.1 to 0.5
COc1ccc(CN(C(=O)Nc2ccc(F)cc2)C2CCCC2)cc1C [Compound 48, 1-cyclopentyl-3-(4-fluorophenyl)-1-[(4-methoxy-3-methyl-phenyl)methyl]urea] | 0.1 to 0.5
COc1ncc(CN(C(=O)Nc2ccccc2)C2CCCC2)s1 [Compound 49, 1-cyclopentyl-1-[(2-methoxythiazol-5-yl)methyl]-3-phenyl-urea] | 1 to 5
N#Cc1cc(CN(C(=O)Nc2ccccc2)C2CCCC2)ccc1F [Compound 50, 1-[(3-cyano-4-fluoro-phenyl)methyl]-1-cyclopentyl-3-phenyl-urea] | 0.1 to 0.5
N#Cc1cc(CN(C(=O)NCCc2ccccc2)C2CCCC2)ccc1F [Compound 51, 1-[(3-cyano-4-fluoro-phenyl)methyl]-1-cyclopentyl-3-(2-phenylethyl)urea] | > 5
N#Cc1cc(CN(C(=O)Nc2ccc(F)c(F)c2)C2CCCC2)ccc1F [Compound 52, 1-[(3-cyano-4-fluoro-phenyl)methyl]-1-cyclopentyl-3-(3,4-difluorophenyl)urea] | < 0.1
N#Cc1cc(CN(C(=O)Nc2ccc(F)cc2)C2CCCC2)ccc1F [Compound 53, 1-[(3-cyano-4-fluoro-phenyl)methyl]-1-cyclopentyl-3-(4-fluorophenyl)urea] | 0.1 to 0.5
O=C(Nc1ccccc1F)N(Cc1cccs1)C1CCCC1 [Compound 54, 1-cyclopentyl-3-(2-fluorophenyl)-1-(2-thienylmethyl)urea] | 1 to 5
O=C(Nc1cccc(F)c1)N(Cc1cccs1)C1CCCC1 [Compound 55, 1-cyclopentyl-3-(3-fluorophenyl)-1-(2-thienylmethyl)urea] | 0.5 to 1
O=C(Nc1cccnc1)N(Cc1cccs1)C1CCCC1 [Compound 57, 1-cyclopentyl-3-(3-pyridyl)-1-(2-thienylmethyl)urea] | > 5
O=C(Nc1cccs1)N(c1ccccc1)C1CCCC1 [Compound 58, 1-cyclopentyl-1-phenyl-3-(2-thienyl)urea] | 1 to 5
O=C(Nc1ccc(Cl)cc1Cl)N(Cc1cccs1)C1CCCC1 [Compound 59, 1-cyclopentyl-3-(2,4-dichlorophenyl)-1-(2-thienylmethyl)urea] | 0.5 to 1
N#Cc1ccc(CN(C(=O)Nc2ccccc2)C2CCCC2)o1 [Compound 60, 1-[(5-cyano-2-furyl)methyl]-1-cyclopentyl-3-phenyl-urea] | 0.5 to 1
N#Cc1ccc(CN(C(=O)Nc2ccc(F)cc2)C2CCCC2)o1 [Compound 61, 1-[(5-cyano-2-furyl)methyl]-1-cyclopentyl-3-(4-fluorophenyl)urea] | > 5
O=C(Nc1ccc(F)cc1)N(Cc1cnoc1)C1CCCC1 [Compound 62, 1-cyclopentyl-3-(4-fluorophenyl)-1-(isoxazol-4-ylmethyl)urea] | > 5
